Source: patent US8815852B2, “Carbamoyloxy arylalkan arylpiperazine analgesics” (SK Biopharmaceuticals Co., Ltd., priority 2007, dated 2014)

Test system: male ICR mouse
Assay: Acetic acid-induced writhing test in mouse
Assay type: in vivo
Conditions: Mus musculus; for inhibition in vivo at 10 mg/kg: po, 1 h, at 10 po (method: 10 mg/kg oral, 1 hour before acetic acid), read-out: AA Writhing: Suppression ratio of Pain response; for ED50: ip, unit not given (method doses in mg/kg), read-out: AA Writhing: ED50
Method: 2. Acetic Acid-Induced Writhing Test in Mouse
An acetic acid-induced writhing test is one of models for measuring an analgesic effect of drugs. A test material dissolved in a suitable vehicle was orally administered to a male ICR mouse weighing 30 to 35 g at an amount of 10 mg/kg. After 1 hour of the oral administration, […] of an aqueous 0.8% acetic acid solution was intraperitoneally injected into the male ICR mouse to induce the abdominal pain of the male ICR mouse. Right after the administration of acetic acid, the male ICR mouse was put into an empty cage, and the number of writhing behaviors of the mice was counted for 10 minutes. The term “writhing represents a reflex action in which the mouse overtly extends its abdomen by stretching its hind legs due to the abdominal pain. The analgesic effect of the test material is represented by the ‘suppression ratio of pain response’ {[(Writhing number of Vehicle-administered group−Writhing number of Test material-administered group)/(Writhing number of Vehicle-administered group)]×100%} or 50% of Effective amount (ED50 (median effective dose); an amount of test material that is required to suppress 50% of pain behaviors) of Test material. The ED50 (median effective dose) was determined by calculating the suppression ratio of pain response in at least three doses of test materials and subjecting to the linear regression.

| SMILES | inhibition in vivo at 10 mg/kg [%] | ED50 [mg/kg] |
| --- | --- | --- |
| NC(=O)OC(CCN1CCN(c2ccc3c(c2)OCCO3)CC1)c1ccccc1 (stereo not shown) [Example 11, Carbamic acid 3-[4-(2,3-dihydro-benzo[1,4]dioxin-6-yl)-piperazin-1-yl]-1-phenyl-propyl ester] | 48 | – |
| NC(=O)OC(CCN1CCN(c2ccc(OC(F)(F)F)cc2)CC1)c1ccccc1 (stereo not shown) [Example 12, Carbamic acid 1-phenyl-3-[4-(4-trifluoromethoxy-phenyl)-piperazin-1-yl]-propyl ester] | 18 | – |
| Cc1ccc(N2CCN(CCC(OC(N)=O)c3ccccc3)CC2)c(C)c1 (stereo not shown) [Example 13, Carbamic acid 3-[4-(2,4-dimethyl-phenyl)-piperazin-1-yl]-1-phenyl-propyl ester] | 34 | – |
| COc1ccc(N2CCN(CCC(OC(N)=O)c3ccccc3)CC2)c(OC)c1 (stereo not shown) [Example 17, Carbamic acid 3-[4-(2,4-dimethoxy-phenyl)-piperazin-1-yl]-1-phenyl-propyl ester] | 19 | – |
| NC(=O)OC(CCN1CCN(c2ccc(Cl)c(C(F)(F)F)c2)CC1)c1ccccc1 (stereo not shown) [Example 18, Carbamic acid 3-[4-(4-chloro-3-trifluoromethyl-phenyl)-piperazin-1-yl]-1-phenyl-propyl ester] | 52 | – |
| Cc1cccc(C)c1N1CCN(CCC(OC(N)=O)c2ccccc2)CC1 (stereo not shown) [Example 19, Carbamic acid 3-[4-(2,6-dimethyl-phenyl)-piperazin-1-yl]-1-phenyl-propyl ester] | 48 | – |
| NC(=O)OC(CCN1CCN(c2ccccc2O)CC1)c1ccccc1 (stereo not shown) [Example 23, Carbamic acid 3-[4-(2-hydroxy-phenyl)-piperazin-1-yl]-1-phenyl-propyl ester] | 37 | – |
| Cc1cccc(N2CCN(CCC(OC(N)=O)c3ccccc3)CC2)c1 (stereo not shown) [Example 24, Carbamic acid 1-phenyl-3-(4-m-tolylpiperazin-1-yl)-propyl ester] | – | 0.81 |
| Cc1ccc(N2CCN(CCC(OC(N)=O)c3ccccc3)CC2)cc1C (stereo not shown) [Example 29, Carbamic acid 3-[4-(3,4-dimethyl-phenyl)-piperazin-1-yl]-1-phenyl-propyl ester] | 99 | – |
| NC(=O)OC(CCN1CCN(c2ccc3c(c2)OCO3)CC1)c1ccccc1 (stereo not shown) [Example 30, Carbamic acid 3-(4-benzo[1,3]dioxol-5-yl-piperazin-1-yl)-1-phenyl-propyl ester] | 93 | – |
| NC(=O)OC(CCN1CCN(c2ccc(Cl)c(Cl)c2)CC1)c1ccccc1 (stereo not shown) [Example 31, Carbamic acid 3-[4-(3,4-dichloro-phenyl)-piperazin-1-yl]-1-phenyl-propyl ester] | 85 | – |
| COc1ccc(Cl)cc1N1CCN(CCC(OC(N)=O)c2ccccc2)CC1 (stereo not shown) [Example 32, Carbamic acid 3-[4-(5-chloro-2-methoxy-phenyl)-piperazin-1-yl]-1-phenyl-propyl ester] | 23 | – |
| COc1cc(OC)cc(N2CCN(CCC(OC(N)=O)c3ccccc3)CC2)c1 (stereo not shown) [Example 33, Carbamic acid 3-[4-(3,5-dimethoxy-phenyl)-piperazin-1-yl]-1-phenyl-propyl ester] | 13 | – |
| NC(=O)OC(CCN1CCN(c2ncccn2)CC1)c1ccccc1 (stereo not shown) [Example 34, Carbamic acid 1-phenyl-3-(4-pyrimidin-2-yl-piperazin-1-yl)-propyl ester] | 21 | – |
| NC(=O)OC(CCN1CCN(c2ccc(C(F)(F)F)cc2[N+](=O)[O-])CC1)c1ccccc1 (stereo not shown) [Example 35, Carbamic acid 3-[4-(2-nitro-4-trifluoromethyl-phenyl)-piperazin-1-yl]-1-phenyl-propyl ester] | 50 | – |
| NC(=O)OC(CCN1CCN(c2ccc(C(F)(F)F)cc2)CC1)c1ccccc1 (stereo not shown) [Example 40, Carbamic acid 1-phenyl-3-[4-(4-trifluoromethyl-phenyl)-piperazin-1-yl]-propyl ester] | – | 1.64 |
| COc1ccc(N2CCN(CCC(OC(N)=O)c3ccc([N+](=O)[O-])cc3)CC2)cc1 (stereo not shown) [Example 44, Carbamic acid 3-[4-(4-methoxy-phenyl)-piperazin-1-yl]-1-(4-nitro-phenyl)-propyl ester] | 64 | – |
| COc1ccc(N2CCN(CCC(OC(N)=O)c3cccc(Cl)c3)CC2)cc1 (stereo not shown) [Example 45, Carbamic acid 1-(3-chloro-phenyl)-3-[4-(4-methoxy-phenyl)-piperazin-1-yl]-propyl ester] | 62 | – |
| COc1ccc(N2CCN(CCC(OC(N)=O)c3ccccc3F)CC2)cc1 (stereo not shown) [Example 46, Carbamic acid 1-(2-fluoro-phenyl)-3-[4-(4-methoxy-phenyl)-piperazin-1-yl]-propyl ester] | 42 | – |

| SMILES | inhibition in vivo at 10 mg/kg [%] | ED50 [mg/kg] |
| --- | --- | --- |
| COc1ccc(C(CCN2CCN(c3ccc(OC)cc3)CC2)OC(N)=O)cc1 (stereo not shown) [Example 47, Carbamic acid 1-(4-methoxy-phenyl)-3-[4-(4-methoxy-phenyl)-piperazin-1-yl]-propyl ester] | 53 | – |
| COc1ccc(N2CCN(CCC(OC(N)=O)c3ccc(C(C)(C)C)cc3)CC2)cc1 (stereo not shown) [Example 48] | 93 | – |
| COc1ccc(N2CCN(CCC(OC(N)=O)c3ccc4ccccc4c3)CC2)cc1 (stereo not shown) [Example 49, Carbamic acid 3-[4-(4-methoxy-phenyl)-piperazin-1-yl]-1-naphthalen-2-yl-propyl ester] | 64 | – |
| COc1ccc(N2CCN(CCC(OC(N)=O)c3ccccc3Cl)CC2)cc1 (stereo not shown) [Example 50, Carbamic acid 1-(2-chloro-phenyl)-3-[4-(4-methoxy-phenyl)-piperazin-1-yl]-propyl ester] | 49 | – |
| COc1ccc(N2CCN(CCC(OC(N)=O)c3ccccc3C(F)(F)F)CC2)cc1 (stereo not shown) [Example 51, Carbamic acid 3-[4-(4-methoxy-phenyl)-piperazin-1-yl]-1-(2-trifluoromethyl-phenyl)-propyl ester] | 95 | – |
| COc1ccc(N2CCN(CCC(OC(N)=O)c3ccc(F)c(F)c3)CC2)cc1 (stereo not shown) [Example 52, Carbamic acid 1-(3,4-difluoro-phenyl)-3-[4-(4-methoxy-phenyl)-piperazin-1-yl]-propyl ester] | 61 | – |
| COc1ccc(N2CCN(CCC(OC(N)=O)c3cccc(F)c3)CC2)cc1 (stereo not shown) [Example 53, Carbamic acid 1-(3-fluoro-phenyl)-3-[4-(4-methoxy-phenyl)-piperazin-1-yl]-propyl ester] | 57 | – |
| COc1ccc(N2CCN(CCC(OC(N)=O)c3cccc(OC)c3)CC2)cc1 (stereo not shown) [Example 54, Carbamic acid 1-(3-methoxy-phenyl)-3-[4-(4-methoxy-phenyl)-piperazin-1-yl]-propyl ester] | 69 | – |
| COc1ccc(N2CCN(CCC(OC(N)=O)c3cccc4ccccc34)CC2)cc1 (stereo not shown) [Example 55, Carbamic acid 3-[4-(4-methoxy-phenyl)-piperazin-1-yl]-1-naphthalen-1-yl-propyl ester] | 16 | – |
| COc1ccc(N2CCN(CCC(OC(N)=O)c3ccc(C)cc3)CC2)cc1 (stereo not shown) [Example 56, Carbamic acid 3-[4-(4-methoxy-phenyl)-piperazin-1-yl]-1-p-tolyl-propyl ester] | 93 | – |
| COc1ccc(N2CCN(CCC(OC(N)=O)c3cccc(C)c3)CC2)cc1 (stereo not shown) [Example 57, Carbamic acid 3-[4-(4-methoxy-phenyl)-piperazin-1-yl]-1-m-tolyl-propyl ester] | 52 | – |
| COc1ccc(N2CCN(CCC(OC(N)=O)c3ccc(Cl)cc3Cl)CC2)cc1 (stereo not shown) [Example 58, Carbamic acid 1-(2,4-dichloro-phenyl)-3-[4-(4-methoxy-phenyl)-piperazin-1-yl]-propyl ester] | 16 | – |
| COc1ccc(N2CCN(CCC(OC(N)=O)c3ccccc3C)CC2)cc1 (stereo not shown) [Example 59, Carbamic acid 3-[4-(4-methoxy-phenyl)-piperazin-1-yl]-1-o-tolyl-propyl ester] | 48 | – |
| COc1ccc(N2CCN(CCC(OC(N)=O)c3ccc(C)cc3C)CC2)cc1 (stereo not shown) [Example 60, Carbamic acid 1-(2,4-dimethyl-phenyl)-3-[4-(4-methoxy-phenyl)-piperazin-1-yl]-propyl ester] | 62 | – |
| COc1ccc(N2CCN(CCC(OC(N)=O)c3ccc(C)c(C)c3)CC2)cc1 (stereo not shown) [Example 61, Carbamic acid 1-(3,4-dimethyl-phenyl)-3-[4-(4-methoxy-phenyl)-piperazin-1-yl]-propyl ester] | 58 | – |
| COc1ccc(N2CCN(CCC(OC(N)=O)c3cc(C)ccc3C)CC2)cc1 (stereo not shown) [Example 62, Carbamic acid 1-(2,5-dimethyl-phenyl)-3-[4-(4-methoxy-phenyl)-piperazin-1-yl]-propyl ester] | 62 | – |
| COc1ccc(N2CCN(CCC(OC(N)=O)c3ccc(Cl)c(C(F)(F)F)c3)CC2)cc1 (stereo not shown) [Example 63, Carbamic acid 1-(4-chloro-3-trifluoromethyl-phenyl)-3-[4-(4-methoxy-phenyl)-piperazin-1-yl]-propyl ester] | 46 | – |
| COc1ccc(N2CCN(CCC(OC(N)=O)c3ccccc3[N+](=O)[O-])CC2)cc1 (stereo not shown) [Example 64, Carbamic acid 3-[4-(4-methoxy-phenyl)-piperazin-1-yl]-1-(2-nitro-phenyl)-propyl ester] | 59 | – |
